# From ChEMBL document CHEMBL1144683, “Design, synthesis and antiproliferative properties of oligomers with chromophore units linked by amide backbones” (Bioorg Med Chem Lett, 2008)
# pIC50: −log10 of the molar value. Calls of active or inactive are those of the source. No cut-off for these calls is given here.
# Columns and labels:
# [1] = (§1) Antiproliferative activity against human GLC-4S cells by MTT assay; type: functional, cell-based
# Jurkat = test: Antiproliferative activity against human Jurkat E6-1 cells by MTT assay; type: functional, cell-based
# [2] = Antiproliferative activity against mouse NIH-3T3 cells by MTT assay; type: cell-based, NIH3T3; settings: for pIC50: Mus musculus, NIH3T3; for Activity: mouse, nih3t3
# GLC-4S = test: as §1; type: functional, cell-based
Structure (SMILES),pIC50 [1],pIC50 (Jurkat),pIC50 [2],Activity [2],Activity (GLC-4S),Activity (Jurkat)
CC(=O)N[C@H]1C[C@@H](C(=O)N[C@H]2C[C@@H](C(=O)N[C@H]3C[C@@H](C(N)=O)N(C(=O)CNC(=O)c4c5ccccc5nc5c4[nH]c4ccccc45)C3)N(C(=O)CNC(=O)c3c4ccccc4nc4c3[nH]c3ccccc34)C2)N(C(=O)CNC(=O)c2c3ccccc3nc3ccccc23)C1,3.82,3.99,3.64,,,
CC(=O)N[C@H]1C[C@@H](C(=O)N[C@H]2C[C@@H](C(=O)N[C@H]3C[C@@H](C(N)=O)N(C(=O)CNC(=O)c4c5ccccc5nc5c4[nH]c4ccccc45)C3)N(C(=O)CNC(=O)c3c4ccccc4nc4ccccc34)C2)N(C(=O)CNC(=O)c2c3ccccc3nc3c2[nH]c2ccccc23)C1,4.09,3.95,3.58,,,
CC(=O)N[C@H]1C[C@@H](C(=O)N[C@H]2C[C@@H](C(=O)N[C@H]3C[C@@H](C(N)=O)N(C(=O)CNC(=O)c4c5ccccc5nc5ccccc45)C3)N(C(=O)CNC(=O)c3c4ccccc4nc4c3[nH]c3ccccc34)C2)N(C(=O)CNC(=O)c2c3ccccc3nc3ccccc23)C1,4.04,4.06,,Not Active,,
CC(=O)N[C@H]1C[C@@H](C(=O)N[C@H]2C[C@@H](C(N)=O)N(C(=O)CNC(=O)c3c4ccccc4nc4ccccc34)C2)N(C(=O)CNC(=O)c2c3ccccc3nc3c2[nH]c2ccccc23)C1,3.78,3.92,,Not Active,,
COC(=O)CNC(=O)c1c2ccccc2nc2c1[nH]c1ccccc12,,5.10,,Not Active,inactive,
CC(=O)N[C@H]1C[C@@H](C(=O)N[C@H]2C[C@@H](C(N)=O)N(C(=O)CNC(=O)c3c4ccccc4nc4ccccc34)C2)N(C(=O)CNC(=O)c2c3ccccc3nc3ccccc23)C1,3.87,3.83,,Not Active,,
CC(=O)N[C@H]1C[C@@H](C(=O)N[C@H]2C[C@@H](C(N)=O)N(C(=O)CNC(=O)c3c4ccccc4nc4c3[nH]c3ccccc34)C2)N(C(=O)CNC(=O)c2c3ccccc3nc3ccccc23)C1,3.90,4.04,3.42,,,
CC(=O)N[C@H]1C[C@@H](C(=O)N[C@H]2C[C@@H](C(=O)N[C@H]3C[C@@H](C(N)=O)N(C(=O)CNC(=O)c4c5ccccc5nc5ccccc45)C3)N(C(=O)CNC(=O)c3c4ccccc4nc4ccccc34)C2)N(C(=O)CNC(=O)c2c3ccccc3nc3c2[nH]c2ccccc23)C1,3.77,3.89,3.45,,,
CC(=O)N[C@H]1C[C@@H](C(=O)N[C@H]2C[C@@H](C(N)=O)N(C(=O)CNC(=O)c3c4ccccc4nc4c3[nH]c3ccccc34)C2)N(C(=O)CNC(=O)c2c3ccccc3nc3c2[nH]c2ccccc23)C1,4.27,4.43,,Not Active,,
O=C(O)CNC(=O)c1c2ccccc2nc2ccccc12,,,,Not Active,inactive,inactive
CC(=O)N[C@H]1C[C@@H](C(=O)N[C@H]2C[C@@H](C(=O)N[C@H]3C[C@@H](C(N)=O)N(C(=O)CNC(=O)c4c5ccccc5nc5c4[nH]c4ccccc45)C3)N(C(=O)CNC(=O)c3c4ccccc4nc4ccccc34)C2)N(C(=O)CNC(=O)c2c3ccccc3nc3ccccc23)C1,3.76,4.07,3.37,,,
CC(=O)N[C@H]1C[C@@H](C(=O)NC2C[C@@H](C(=O)NC3C[C@@H](C(N)=O)N(C(=O)CNC(=O)c4c5ccccc5nc5ccccc45)C3)N(C(=O)CNC(=O)c3c4ccccc4nc4ccccc34)C2)N(C(=O)CNC(=O)c2c3ccccc3nc3ccccc23)C1 (some centres not stated),3.87,,,Not Active,,inactive
O=C(O)CNC(=O)c1c2ccccc2nc2c1[nH]c1ccccc12,,4.92,,Not Active,inactive,
COC(=O)CNC(=O)c1c2ccccc2nc2ccccc12,,,,Not Active,inactive,inactive
